Data: patent US9763911B2, “Prostacyclin compositions for regulation of fracture repair and bone formation” (MAYO FOUNDATION FOR MEDICAL EDUCATION AND RESEARCH, priority 2013, dated 2017)

Tests used:
[1] = system: β-catenin in KO OC clone 8 cells; test: Activated β-catenin protein in Sost KO clonal osteocytes treated with Wnt inhibitor (immunoblot); assay type: cell-based, mouse; conditions: KO OC 8 cells, treatment for 48 hours, vs vehicle, P<0.05 (FIG. 7A)
Procedure: (§1) FIGS. 7A and 7B show inhibition of Wnt secretion with C-59 reduces intra-cellular activated β-catenin concentrations and 6-keto PGF1α concentrations. […] KO OC clone 8 cells were treated with a Wnt inhibitor, C-59 (2-(4-(2-methylpyridin-4-yl)phenyl)-N-(4(pyridine-3-yl)phenyl)acetamide) to assess the functional importance of β-catenin signaling in sclerostin-mediated increases in PGI2 synthesis.
Wells in a 6-well collagen treated plate were seeded with 0.2×10^6 sclerostin knock-out osteocytes (Clone KO8). After 48 hours, normal growth medium was removed, and cells were rinsed with PBS. Serum-free media was then added (α-MEM, 1% P/S) to the osteocytes as was well as either 100 nM of the small molecule Wnt inhibitor, C59 (2-(4-(2-methylpyridin-4-yl)phenyl)-N-(4-(pyridine-3-yl)phenyl) acetamide), or a vehicle control. After a 48 hour incubation, media was harvested from both vehicle and experimental wells and assayed for 6-keto prostaglandin F1α.
Cell lysates from 6- or 12-well plates were prepared by scraping cells in lysis buffer (0.1% SDS, 150 mM NaCl, 2 mM sodium vanadate, 0.5% sodium deoxycholate, 1% NP-40 50 mM Tris pH 8.2, 1 mM EDTA with one mini-complete protease inhibitor cocktail EDTA-free tab (Roche Diagnostics, Indianapolis, Ind.)) per 7 ml lysis solution or by direct addition of 1×SDS sample containing 5 mM EDTA and protease inhibitor as above. […]

[2] = system: 6-keto PGF1α (PGI2 synthesis) in KO OC clone 8 cells; test: 6-keto PGF1α in culture medium of treated Sost KO clonal osteocytes (EIA); assay type: cell-based, mouse; conditions: 100 nM C59, 48 h, vehicle 274.964±6.006 pg/mL, P=0.012 (FIG. 7B)
Procedure: as §1
All prostaglandin metabolite measurements were performed by enzyme immunoassay (EIA) using kits from Cayman Chemical (Ann Arbor, Mich.). 6-Keto prostaglandin Flα (Catalog Number 515211), prostaglandin E2 (Catalog Number 514010), Prostaglandin E Metabolite (Catalog Number 514531), prostaglandin F2α (Catalog Number 516011), prostaglandin D2 (Catalog Number 512031), and thromboxane B2 (Catalog Number 519031) were all performed according to kit instructions. Culture medium was diluted 1:2 in supplied buffer for each metabolite measurement, solubilized bone proteins were diluted 1:100 in supplied buffer for each metabolite measurement, and urine was diluted 1:500 in supplied buffer for each metabolite measurement.
Wells in a 6-well collagen treated plate were seeded with 0.2×10^6 sclerostin knock-out osteocytes (Clone KO8). After 48 hours, normal growth medium was removed, and cells were rinsed with PBS. […]

Cc1cc(-c2ccc(CC(=O)Nc3ccc(-c4cccnc4)cc3)cc2)ccn1 [C59, 2-(4-(2-methylpyridin-4-yl)phenyl)-N-(4(pyridine-3-yl)phenyl)acetamide]
β-catenin protein concentration in cells [1]: statistically significant decrease
6-keto PGF1α in culture medium [2]: 536.409 ± 60.690 pg/mL
